Assays:
[1] = xn = mol fraction of the nth substance listed; conditions: 308.15 K, 101 kPa, Liquid; for excess molar volume: Direct dilatometry; for speed of sound: Sing-around technique in a fixed-path interferometer
[2] = 308.15 K, 101.33 kPa, Liquid; for speed of sound: Sing-around technique in a fixed-path interferometer; for mass density: Vibrating tube method

OCCCCCO [1,5-pentanediol] + O=C1CCCN1
[1]
Conditions	excess molar volume [m3/mol]	speed of sound [m/s]	viscosity [mPa·s]
x1 = 0.0022	1e-09	–	–
x1 = 0.009	3e-09	–	–
x1 = 0.0129	5e-09	–	–
x1 = 0.0168	6e-09	–	–
x1 = 0.0269	1e-08	–	–
x1 = 0.0298	–	1597.5	9.401
x1 = 0.0326	1.5e-08	–	–
x1 = 0.0454	1.7e-08	–	–
x1 = 0.0514	–	1595.7	9.774
x1 = 0.0619	2.7e-08	–	–
x1 = 0.0915	3.4e-08	–	–
x1 = 0.1017	–	1591.8	10.74
x1 = 0.1149	4e-08	–	–
x1 = 0.1375	4.4e-08	–	–
x1 = 0.1536	–	1588.7	11.8
x1 = 0.1895	5.2e-08	–	–
x1 = 0.2008	–	1586.9	12.89
x1 = 0.2539	5.9e-08	–	–
x1 = 0.293	6.4e-08	–	–
x1 = 0.2942	–	1583.5	15.32
x1 = 0.3268	6.7e-08	–	–
x1 = 0.3769	7e-08	–	–
x1 = 0.3886	–	1580.9	18.07
x1 = 0.4209	7e-08	–	–
x1 = 0.4564	7.1e-08	–	–
x1 = 0.479	–	1578.8	21.15
x1 = 0.5091	7e-08	–	–
x1 = 0.5407	6.9e-08	–	–
x1 = 0.5779	6.6e-08	–	–
x1 = 0.582	–	1577.1	24.71
x1 = 0.601	6.1e-08	–	–
x1 = 0.6363	5.6e-08	–	–
x1 = 0.6673	5.3e-08	–	–
x1 = 0.6827	–	1575.3	29.13
x1 = 0.7035	4.7e-08	–	–
x1 = 0.7347	4.2e-08	–	–
x1 = 0.7812	–	1573	36.21
x1 = 0.7879	3.3e-08	–	–
x1 = 0.822	2.8e-08	–	–
x1 = 0.8319	–	1571.6	41.2
x1 = 0.8461	2.6e-08	–	–
x1 = 0.8694	2.3e-08	–	–
x1 = 0.8947	1.8e-08	–	–
x1 = 0.9095	–	1569.4	50.56
x1 = 0.9143	1.3e-08	–	–
x1 = 0.9392	–	1568.6	54.65
x1 = 0.9428	1.1e-08	–	–
x1 = 0.9583	7e-09	–	–
x1 = 0.9749	–	1567.3	59.95
x1 = 0.9783	3e-09	–	–

O=C1CCCN1 [2-pyrrolidinone]
[2]
Conditions	mass density [kg/m3]	speed of sound [m/s]	viscosity [mPa·s]
–	1097.14	1600	8.922

OCCCCCO [1,5-pentanediol]
[2]
Conditions	mass density [kg/m3]	speed of sound [m/s]	viscosity [mPa·s]
–	974.3	1566.1	64

OCCO [1,2-ethanediol]
[2]
Conditions	speed of sound [m/s]	viscosity [mPa·s]
–	1633.4	11.35

OCCCO [propan-1,3-diol]
[2]
Conditions	mass density [kg/m3]	speed of sound [m/s]	viscosity [mPa·s]
–	1042.7	1604.5	26.44

Reference: the NIST ThermoML archive (doi:10.1016/j.jct.2007.08.005)
